Experiments:
Test in all cases: Tyrosine kinase activity inhibition rate in cell membrane fraction (Poly-Glu4-Tyr substrate)
Type in all cases: biochemical
[1] = tested on: tyrosine kinase in cell membrane fraction of BT-474; settings: 25 μM kinase inhibitor, 25 μM ATP
Description: (§1) Breast cancer cell lines shown in Table 3 were cultured in a 150 mm dish so as to be about 80% confluent, the cells were recovered using PBS and a scraper, and a cell pellet was obtained by centrifugal operation (900×g, for 5 minutes, at 4° C.). The pellet was frozen with liquid nitrogen and stored at −80° C. until preparation of the measurement sample.
(§2) 500 μl of NP40 (−) solubilized buffer (20 mM HEPES (pH 7.4)), (w/v) % glycerol, 0.2% protease inhibitor cocktail (#P8340: Sigma-Aldrich (product composition: 104 mM AEBSF, 80 μM aprotinin, 4 mM bestatin, 1.4 mM E-64, 2 mM leupeptin, 1.5 mM Pepstatin A), 50 mM NaF and 200 μM Na3VO4) was added to the cell pellet, followed by stirring for 2 seconds three times using a vortex mixer. After being allowed to stand for 10 minutes, the soluble fraction was removed by centrifugal operation (at 20000×g, for 30 minutes, at 4° C.). The obtained pellet was resuspended in 500 μl of NP40 (−) solubilized buffer, the soluble fraction was again removed by centrifugal operation (at 20000×g, for 20 minutes, at 4° C.), and the pellet was washed. The pellet was resuspended by adding 500 μl of NP40 (+) solubilized buffer (a buffer prepared by adding NP-40 to the NP40 (−) solubilized buffer at a final concentration of 1%) to the pellet, pipetting fifty times, and vortexing for 2 seconds three times. After being allowed to stand for 10 minutes, a cell membrane fraction containing a membrane protein was obtained by centrifugal operation (at 20000×g, for 40 minutes, at 4° C.). The protein concentration of the fraction was measured by DC protein assay (#500-0116 JA: Bio-Rad) and the fraction was used as a sample for kinase activity measurement. The sample was frozen with liquid nitrogen and stored at −80° C. until used for the following kinase activity measurement.
(§3) NeutrAvidin Coated Plates (HBC) (96 white plate; #15509: Pierce) were washed three times with 300 μl of TBS-T (20 mM Tris-HCl (pH 7.4)), 150 mM NaCl, 0.1% Tween), and then 100 μl of Poly-Glu4-Tyr biotin conjugate (#12440: Upstate) which had been diluted to 1 μg/ml with TBS (20 mM Tris-HCl (pH 7.4), 150 mM NaCl) was added to the wells. After shaking at 37° C. and 400 rpm for 90 minutes, the wells were washed with 300 μl of TBS-T three times and a measuring plate was obtained.
(§4) The measurement sample was diluted with a kinase buffer (20 mM HEPES (pH 7.4), 25 mM MgCl2, 1.25 mM MnCl2, 250 μM Na3VO4, 12.5 (w/v) % glycerol) so as to adjust the protein concentration to 6.25 μg/ml. The diluted measurement sample was transferred to wells of a 96 well V bottom plate. A DMSO solution (inhibitor concentration: 5 mM) containing one type of tyrosine kinase inhibitors (Inhibitors 1 to 10 shown in Table 6) was added to the wells at a ratio of 1:160 based on the diluted measurement sample solution, followed by mixing thereof. As the control, DMSO was added to the diluted measurement sample at the same ratio as the solution of the inhibitor. The used tyrosine kinase inhibitors are represented as Inhibitors 1 to 10 in Table 6.
(§5) After addition of the inhibitors, a mixed solution of the measurement sample and the inhibitor was allowed to stand at room temperature for 10 minutes. 40 μl of the mixed solution was transferred to wells of the measuring plate and 10 μl of an ATP solution (20 mM HEPES (pH 7.4), […]) as the phosphate group donor was added to the wells.
(§6) The composition of the solution in the wells is as follows: protein concentration: 5 μg/ml, 20 mM HEPES (pH 7.4), 20 mM MgCl2, 1 mM MnCl2, 200 μM Na3VO4, 10 (w/v) % glycerol, 25 μM ATP, 25 μM kinase inhibitor.
(§7) After shaking the measuring plate at 37° C. and 400 rpm for 60 minutes, the solution was removed from the measuring plate, and the wells were washed with 300 μl of TBS-T three times. 100 μl of Starting Block T20 (TBS) (#37543: Pierce) as a blocking solution was added to the wells, followed by blocking at 37° C. and 400 rpm for 10 minutes. The blocking solution was removed from the measuring plate. […]

[2] = tested on: tyrosine kinase in cell membrane fraction of CAMA-1; settings: 25 μM kinase inhibitor, 25 μM ATP
Description: as §1, §2, §3, §4, §5, §6, §7

[3] = tested on: tyrosine kinase in cell membrane fraction of ZR-75-1; settings: 25 μM kinase inhibitor, 25 μM ATP
Description: as §1, §2, §3, §4, §5, §6, §7

[4] = tested on: tyrosine kinase in cell membrane fraction of MDA-MB-436; settings: 25 μM kinase inhibitor, 25 μM ATP
Description: as §1, §2, §3, §4, §5, §6, §7

[5] = tested on: tyrosine kinase in cell membrane fraction of MDA-MB-231; settings: 25 μM kinase inhibitor, 25 μM ATP
Description: as §1, §2, §3, §4, §5, §6, §7

[6] = tested on: tyrosine kinase in cell membrane fraction of HCC202; settings: 25 μM kinase inhibitor, 25 μM ATP
Description: as §1, §2, §3, §4, §5, §6, §7

[7] = tested on: tyrosine kinase in cell membrane fraction of UACC812; settings: UACC812; 25 μM kinase inhibitor, 25 μM ATP
Description: as §1, §2, §3, §4, §5, §6, §7

[8] = tested on: tyrosine kinase in cell membrane fraction of BT-483; settings: 25 μM kinase inhibitor, 25 μM ATP
Description: as §1, §2, §3, §4, §5, §6, §7

[9] = tested on: tyrosine kinase in cell membrane fraction of MDA-MB-453; settings: 25 μM kinase inhibitor, 25 μM ATP
Description: as §1, §2, §3, §4, §5, §6, §7

[10] = tested on: tyrosine kinase in cell membrane fraction of HS578T; settings: 25 μM kinase inhibitor, 25 μM ATP
Description: as §1, §2, §3, §4, §5, §6, §7

[11] = tested on: tyrosine kinase in cell membrane fraction of SK-BR-3; settings: 25 μM kinase inhibitor, 25 μM ATP
Description: as §1, §2, §3, §4, §5, §6, §7

[12] = tested on: tyrosine kinase in cell membrane fraction of HCC1419; settings: 25 μM kinase inhibitor, 25 μM ATP
Description: as §1, §2, §3, §4, §5, §6, §7

Compound | Inhibition rate [1] [%] | Inhibition rate [2] [%] | Inhibition rate [3] [%] | Inhibition rate [4] [%] | Inhibition rate [5] [%] | Inhibition rate [6] [%] | Inhibition rate [7] [%] | Inhibition rate [8] [%] | Inhibition rate [9] [%] | Inhibition rate [10] [%] | Inhibition rate [11] [%] | Inhibition rate [12] [%]
COc1cc2ncnc(Nc3cccc(Cl)c3)c2cc1OC [Inhibitor 1] | 26.0 | 14.3 | 20.8 | 33.9 | 56.4 | 29.7 | 49.3 | 54.7 | 39.8 | 53.8 | 46.8 | 34.9
CN1CCC(Nc2ncc3ncnc(Nc4ccc(F)c(Cl)c4)c3n2)CC1 [Inhibitor 2] | 10.5 | −3.4 | 9.0 | 19.0 | 23.5 | 7.7 | 30.3 | 40.3 | 19.9 | 20.8 | 18.8 | 6.2
COc1cc2ncnc(Nc3ccc(OCc4ccccc4)cc3)c2cc1OC [Inhibitor 3, 4-(4-benzyloxyanilino)-6,7-dimethoxyquinazoline] | 15.1 | 16.7 | 38.5 | 48.7 | 42.0 | 24.5 | 66.6 | 68.5 | 36.9 | 40.0 | 44.1 | 43.3
CN(C)c1cc2c(Nc3ccc4c(cnn4Cc4ccccc4)c3)ncnc2cn1 [Inhibitor 4, N4-(1-benzyl-1H-indazol-5-yl)-N6,N6-dimethyl-pyrido-[3,4-d]-pyrimidine-4,6-diamine] | 24.6 | 7.3 | 7.0 | 26.3 | 38.9 | 21.3 | 59.4 | 52.7 | 27.9 | 32.1 | 31.4 | 23.8
CS(=O)(=O)CCNCc1nc(-c2ccc3ncnc(Nc4ccc(OCc5cccc(F)c5)c(Cl)c4)c3c2)cs1.Cl.Cl [Inhibitor 5, N-[3-chloro-4-[(3-fluorophenyl)methoxy]phenyl]-6-[2-[[[2-(methylsulfonyl)ethyl]amino]methyl]-4-thiazolyl]-4-quinazolineamine dihydrochloride] | 42.7 | 48.6 | 44.8 | 68.5 | 58.2 | 66.2 | 80.4 | 66.9 | 70.4 | 64.2 | 75.7 | 63.6
COc1cc2c(cc1OC)-c1[nH]nc(Nc3cccc(F)c3)c1C2 [Inhibitor 6] | 30.7 | 15.9 | 32.5 | 36.1 | 45.7 | 27.1 | 61.4 | 62.9 | 28.9 | 49.7 | 45.3 | 33.5
CCCNC(=O)Nc1ccc(Oc2ncnc3cc(OC)c(OC)cc23)cc1Cl [Inhibitor 7] | 30.3 | 3.4 | 18.3 | 23.1 | 9.7 | 33.4 | 28.5 | 17.3 | 29.4 | 19.4 | 45.0 | 28.4
Cc1cc(F)c(Nc2ncnc3cc(OCc4ccccc4)ccc23)cc1O.Cl [Inhibitor 8] | 18.0 | 8.1 | 0.6 | 12.1 | 12.8 | 11.9 | 21.6 | 27.2 | 17.7 | 5.5 | 25.9 | 14.7
Cc1[nH]c(/C=C2\C(=O)Nc3ccc(S(=O)(=O)N(C)c4cccc(Cl)c4)cc32)c(C)c1C(=O)N1CCN(C)CC1 [Inhibitor 9] | 54.6 | 60.2 | 53.9 | 74.0 | 68.0 | 69.1 | 78.1 | 68.6 | 64.4 | 70.6 | 66.1 | 70.7

From patent US20110318768A1, “METHOD FOR DETERMINING SENSITIVITY OF TUMOR CELLS TO TYROSINE KINASE INHIBITOR AND COMPUTER PROGRAM PRODUCT” (SYSMEX CORPORATION, priority 2010, published 2011)
